Source: paper PMC3929521, “Optimization (Central Composite Design) and Validation of HPLC Method for Investigation of Emtricitabine Loaded Poly(lactic-co-glycolic acid) Nanoparticles: In Vitro Drug Release and In Vivo Pharmacokinetic Studies” (The Scientific World Journal, 2014)
Where two headings read alike, the source gives them in different places.

How the values were obtained:
[1] = rat plasma, n = 6
Description: Bench-top stability was investigated to ensure that emtricitabine was not degraded in plasma samples at room temperature for a time period to cover the sample preparation. It was measured by divulging the QC samples to ambient laboratory conditions for 10 h. Freeze-thaw stability was measured over three cycles. Because of the need for occasional delayed injection of extraction samples, the stability of reconstituted samples was assessed at ambient temperature for 24 h. The freezer storage stability of emtricitabine in rat plasma at −20°C was evaluated by assaying QC samples at the beginning and one week later. All stability QC samples were analyzed in six replicates.

in vivo = assay: in vivo
Description: The pharmacokinetic studies were carried out in healthy male Wistar rats (250–300 g). The animals were fasted overnight before dosing with free access to water. The animals were acclimatized to laboratory conditions over the week before experiments and fed with standard rat diet, under controlled conditions of a 12 : 12 h light : dark cycle, with a temperature of 22 ± 3°C and relative humidity of 50 ± 5% RH. The experimental protocol was approved by the Institutional Animal Ethical Committee (AACP/IAEC/Jun-2012-02).
Eighteen rats were randomly separated into three groups (six animals in each group).
At regular time intervals 0, 1, 2, 4, 6, 8, 12, and every 24 h, for 10 days, samples of blood were withdrawn (100 μL) from the retroorbital plexus by microcapillary technique under light ether anesthesia into heparinized microcentrifuge tubes (50 units heparin/mL of blood).
The supernatant was decanted into a China dish and evaporated to dryness at room temperature. This was further reconstituted with 100 μL of mobile phase and vortexed for 30 s and 20 μL was injected into an HPLC system. Emtricitabine was detected at a wavelength of 280 nm. The proficiency of nanoparticulate formulations was appraised by administering pure drug orally and measuring the blood levels at 0, 0.25, 0.5, 1.5, 2, 3, 4, 6, 8, 12 and 24 h.

[2] = Bench-top stability, ambient temperature (25°C) for 4 h, spiked 0.1 μg/mL
[3] = Bench-top stability, ambient temperature (25°C) for 4 h, spiked 0.8 μg/mL
[4] = Bench-top stability, ambient temperature (25°C) for 4 h, spiked 2.0 μg/mL
[5] = Freeze-thaw stability, after three freeze-thaw cycles, spiked 0.1 μg/mL
[6] = Freeze-thaw stability, after three freeze-thaw cycles, spiked 0.8 μg/mL
[7] = Freeze-thaw stability, after three freeze-thaw cycles, spiked 2.0 μg/mL
[8] = One-week stability, stored at −16°C, spiked 0.1 μg/mL
[9] = One-week stability, stored at −16°C, spiked 0.8 μg/mL
[10] = One-week stability, stored at −16°C, spiked 2.0 μg/mL
[11] = male Wistar rats, oral, 15 mg/kg/rat, n = 6, mean ± SD, listed as Free emtricitabine, 15 mg/kg
[12] = male, Wistar, rat, plasma, po, 15 mg/kg

Accuracy [1, 2]: 96.0%
Mean determined concentration [1, 2]: 0.096 µg/mL
Accuracy [1, 3]: 97.87%
Mean determined concentration [1, 3]: 0.783 µg/mL
Accuracy [1, 4]: 97.20%
Mean determined concentration [1, 4]: 1.944 µg/mL
Accuracy [1, 5]: 99.00%
Mean determined concentration [1, 5]: 0.099 µg/mL
Accuracy [1, 6]: 99.37%
Mean determined concentration [1, 6]: 0.795 µg/mL
Accuracy [1, 7]: 99.75%
Mean determined concentration [1, 7]: 1.995 µg/mL
Accuracy [1, 8]: 93.00%
Mean determined concentration [1, 8]: 0.093 µg/mL
Accuracy [1, 9]: 93.25%
Mean determined concentration [1, 9]: 0.746 µg/mL
Accuracy [1, 10]: 95.55%
Mean determined concentration [1, 10]: 1.911 µg/mL
AUMC0–∞ (in vivo; male Wistar rats, oral, 15 mg/kg/rat, n = 6, mean ± SD): 178.32 ± 15.095 µg/mL∗h
AUC0–∞ (in vivo; [11]): 14.835 ± 0.450 µg/mL∗h
t max (in vivo; [11]): 2.0 ± 0.006 h
Cmax (in vivo; [12]): 1700 ± 17 ng/mL
MRT (in vivo; [12]): 12 ± 0.67 h
half-life (in vivo; [12]): 9.37 ± 0.58 h
k el (in vivo; [12]): 2.06e-05 s⁻¹
AUC(0-inf) (in vivo; male, Wistar, rat, plasma, po, 15 mg/kg, AUC0–∞, male Wistar rats, 15 mg/kg/rat, n = 6, mean ± SD): 14800 ng·h/mL
t max (in vivo; male, Wistar, rat, plasma, po, 15 mg/kg, t max, male Wistar rats, 15 mg/kg/rat, n = 6, mean ± SD): ≤ 2 h
AUC(0-inf) (in vivo; male, Wistar, rat, plasma, po, 15 mg/kg/rat, AUC0−∞ (Figure 6), Wistar rats, mean ± SEM): 14800 ± 184 ng·h/mL
SMILES: Nc1nc(=O)n([C@@H]2CS[C@H](CO)O2)cc1F [Emtricitabine, 5-fluoro-1-(2R, 5S)-[2-(hydroxymethyl)-1,3-oxathiolan-5-yl]cytosine]
